target: human factor Xa (FXa) (Homo sapiens, UniProt P00742); assay: Determination of the factor Xa inhibition (chromogenic substrate); format: biochemical; conditions: human FXa 0.5 nmol/l, 150 μmol/l Pefachrome FXa, 25° C., extinction at 405 nm
Protocol: The enzymatic inhibition of human factor Xa (FXa) is measured using the conversion of a chromogenic substrate specific for FXa. Factor Xa cleaves p-nitroaniline from the chromogenic substrate. The determinations are carried out in microtiter plates as follows:
The test substances, in various concentrations, are dissolved in DMSO and incubated for 10 minutes at 25° C. with human FXa (0.5 nmol/l dissolved in 50 mmol/l of Tris buffer [C,C,C-tris(hydroxymethyl)aminomethane], 150 mmol/l of NaCl, 0.1% BSA [bovine serum albumin], pH 20=8.3). Pure DMSO is used as control. The chromogenic substrate (150 μmol/l Pefachrome® FXa from Pentapharm) is then added. After an incubation time of 20 minutes at 25° C., the extinction at 405 nm is determined.

Chain of human factor Xa (FXa) (P00742 235-488 limits assumed): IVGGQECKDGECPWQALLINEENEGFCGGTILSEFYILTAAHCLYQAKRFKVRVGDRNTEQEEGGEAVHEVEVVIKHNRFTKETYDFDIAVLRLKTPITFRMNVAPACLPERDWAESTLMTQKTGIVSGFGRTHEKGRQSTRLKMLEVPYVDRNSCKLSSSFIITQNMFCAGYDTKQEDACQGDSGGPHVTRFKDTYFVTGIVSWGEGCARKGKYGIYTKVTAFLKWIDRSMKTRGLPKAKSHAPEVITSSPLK
Chain of human factor Xa (FXa) (P00742 41-179 partner limits assumed): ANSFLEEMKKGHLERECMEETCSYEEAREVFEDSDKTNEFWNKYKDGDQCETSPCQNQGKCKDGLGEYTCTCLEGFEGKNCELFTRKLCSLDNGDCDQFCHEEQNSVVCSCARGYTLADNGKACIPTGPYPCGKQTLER

Compared with `N=C1OCCCN1c1ccc(N2C[C@H](CNC(=O)c3ccc(Cl)s3)OC2=O)cc1` [Example 5, 5-Chloro-N-({(5S)-3-[4-(2-imino-1,3-oxazinan-3-yl)phenyl]-2-oxo-1,3-oxazolidin-5-yl}methyl)thiophene-2-carboxamide methanesulfonate], `N=C1OCCN1c1ccc(N2C[C@H](CNC(=O)c3ccc(Cl)s3)OC2=O)cc1` [Example 1, 5-Chloro-N-({(5S)-3-[4-(2-imino-1,3-oxazolidin-3-yl)phenyl]-2-oxo-1,3-oxazolidin-5-yl}methyl)thiophene-2-carboxamide] is 2.8-fold lower in IC50: 3.1 nM for the first, 1.1 nM for the second.

With `N#CN=C1OCCN1c1ccc(N2C[C@H](CNC(=O)c3ccc(Cl)s3)OC2=O)cc1` [Example 6, 5-Chloro-N-[((5S)-3-{4-[2-(cyanoimino)-1,3-oxazolidin-3-yl]phenyl}-2-oxo-1,3-oxazolidin-5-yl)methyl]thiophene-2-carboxamide] the IC50 was 16 nM.
